Calls of active or inactive are those of the source. The calls are words filed in the database; no cut-off is given here.
Columns and labels:
[1] = target: T1, Pho80/Pho85/Pho81 complex (Saccharomyces cerevisiae S288c) (UniProt P17157+P17442+P20052); experiment: Displacement of myo-inositol hexakisphosphate from Pho80-Pho85-Pho81-MD complex in Saccharomyces cerevisiae at 0.2 uM 30 mins by electrophoretic mobility shift assay; assay type: protein-complex assay
[2] = target: T1, Pho80/Pho85/Pho81 complex (Saccharomyces cerevisiae S288c); experiment: Inhibition of Saccharomyces cerevisiae Pho80-Pho85-Pho81-MD catalyzed phosphorylation of Pho4 F29I distal-site mutant assessed as increase in substrate concentration; assay type: protein-complex assay
[3] = target: T1, Pho80/Pho85/Pho81 complex (Saccharomyces cerevisiae S288c); experiment: Inhibition of Saccharomyces cerevisiae Pho80-Pho85-Pho81-MD catalyzed phosphorylation of wild type Pho4 distal-site assessed as increase in substrate concentration; assay type: protein-complex assay
[4] = target: T2, Pho80/Pho85 (Saccharomyces cerevisiae S288c) (UniProt P17157+P20052); experiment: Inhibition of Saccharomyces cerevisiae Pho80-Pho85 at 50 uM in presence of > 10 uM Pho81-MD; assay type: protein-complex assay
[5] = target: T3, Pho80/Pho85/Pho81 complex (Saccharomyces cerevisiae S288c, UniProt P17157+P17442+P20052); experiment: Competitive inhibition of Saccharomyces cerevisiae Pho80-Pho85-Pho81-MD catalyzed phosphorylation of Pho4 assessed as increase in substrate concentration by line-weaverberk plot assay; assay type: protein-complex assay
[6] = target: T4, Phosphate system positive regulatory protein PHO81 (Saccharomyces cerevisiae S288c, UniProt P17442); experiment: Inhibition of Saccharomyces cerevisiae Pho81-MD-MD dependent Pho80-Pho85 activity after 60 mins
T4 sequence (P17442 whole entry): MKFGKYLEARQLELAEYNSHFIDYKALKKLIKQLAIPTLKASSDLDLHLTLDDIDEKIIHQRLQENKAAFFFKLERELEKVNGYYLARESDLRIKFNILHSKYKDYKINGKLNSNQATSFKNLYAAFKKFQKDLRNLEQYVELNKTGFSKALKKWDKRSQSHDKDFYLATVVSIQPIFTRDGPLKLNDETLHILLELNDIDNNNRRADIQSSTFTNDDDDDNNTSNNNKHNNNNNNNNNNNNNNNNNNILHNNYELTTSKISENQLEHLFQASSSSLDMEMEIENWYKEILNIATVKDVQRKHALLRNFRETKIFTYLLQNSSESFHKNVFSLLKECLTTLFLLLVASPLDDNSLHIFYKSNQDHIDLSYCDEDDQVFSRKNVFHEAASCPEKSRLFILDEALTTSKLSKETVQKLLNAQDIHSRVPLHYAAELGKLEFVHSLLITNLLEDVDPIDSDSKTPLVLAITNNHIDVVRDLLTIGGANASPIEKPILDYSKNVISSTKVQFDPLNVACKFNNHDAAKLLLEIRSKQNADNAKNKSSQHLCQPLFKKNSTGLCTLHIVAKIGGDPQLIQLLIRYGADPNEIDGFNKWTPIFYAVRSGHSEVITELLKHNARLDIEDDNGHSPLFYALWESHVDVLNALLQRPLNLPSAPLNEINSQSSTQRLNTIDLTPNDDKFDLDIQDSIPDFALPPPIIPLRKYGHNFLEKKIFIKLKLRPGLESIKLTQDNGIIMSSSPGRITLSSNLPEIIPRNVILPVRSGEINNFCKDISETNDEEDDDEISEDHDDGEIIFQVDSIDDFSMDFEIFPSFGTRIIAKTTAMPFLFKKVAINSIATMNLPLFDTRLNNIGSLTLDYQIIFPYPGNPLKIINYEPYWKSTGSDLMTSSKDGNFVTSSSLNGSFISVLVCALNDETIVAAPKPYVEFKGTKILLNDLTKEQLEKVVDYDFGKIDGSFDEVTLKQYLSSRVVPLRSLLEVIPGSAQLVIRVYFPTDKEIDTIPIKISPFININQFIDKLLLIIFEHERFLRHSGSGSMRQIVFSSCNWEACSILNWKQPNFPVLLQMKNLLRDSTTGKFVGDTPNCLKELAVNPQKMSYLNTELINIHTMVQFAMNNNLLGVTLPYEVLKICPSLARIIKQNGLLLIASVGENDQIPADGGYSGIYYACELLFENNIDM

[7] = target: T2, Pho80/Pho85 (Saccharomyces cerevisiae S288c); experiment: Binding affinity of Pho81-MD S1-segment to Saccharomyces cerevisiae Pho80-Pho85; assay type: protein-complex assay
[8] = target: T4, Phosphate system positive regulatory protein PHO81; experiment: Inhibition of Saccharomyces cerevisiae Pho81-MD-MD dependent Pho80-Pho85 activity after 120 mins
[9] = target: T1, Pho80/Pho85/Pho81 complex (Saccharomyces cerevisiae S288c); experiment: Displacement of 5-Inositol heptakisphosphate from Pho80-Pho85-Pho81-MD complex in Saccharomyces cerevisiae at 0.2 uM 30 mins by electrophoretic mobility shift assay; assay type: protein-complex assay
[10] = target: T1, Pho80/Pho85/Pho81 complex (Saccharomyces cerevisiae S288c); experiment: Binding affinity to Saccharomyces cerevisiae Pho80-Pho85-Pho81-MD complex at 0.2 uM after 30 mins at by electrophoretic mobility shift assay; conditions: tested as the 32P-labelled form
[11] = target: T1, Pho80/Pho85/Pho81 complex (Saccharomyces cerevisiae S288c); experiment: Inhibition of Saccharomyces cerevisiae Pho80-Pho85-Pho81-MD catalyzed phosphorylation of Pho4 S176N distal-site mutant assessed as increase in substrate concentration; assay type: protein-complex assay
[12] = target: T4, Phosphate system positive regulatory protein PHO81; experiment: Inhibition of Saccharomyces cerevisiae Pho81-MD-dependent Pho80-Pho85 activity after 10 mins
[13] = target: T1, Pho80/Pho85/Pho81 complex (Saccharomyces cerevisiae S288c); experiment: Binding affinity to Saccharomyces cerevisiae Pho80-Pho85-Pho81-MD complex at 0.2 uM after 30 mins by electrophoretic mobility shift assay in presence of 6mM MgCl2; assay type: protein-complex assay; conditions: tested as the 32P-labelled form
[14] = target: T1, Pho80/Pho85/Pho81 complex (Saccharomyces cerevisiae S288c); experiment: Binding affinity to Saccharomyces cerevisiae Pho80-Pho85-Pho81-MD complex at 400 uM after 30 mins at 4 degC by electrophoretic mobility shift assay; assay type: protein-complex assay
[15] = target: T3, Pho80/Pho85/Pho81 complex; experiment: Binding affinity to Saccharomyces cerevisiae Pho80-Pho85-Pho81-MD complex from 2uM to 80 uM after 30 mins by electrophoretic mobility shift assay in presence of 6 mM MgCl2; assay type: protein-complex assay; conditions: read-out: Kd(app)
[16] = target: T2, Pho80/Pho85 (Saccharomyces cerevisiae S288c); experiment: Inhibition of Saccharomyces cerevisiae Pho80-Pho85 at 100 uM in presence of > 10 uM Pho81-MD; assay type: protein-complex assay
[17] = target: T1, Pho80/Pho85/Pho81 complex (Saccharomyces cerevisiae S288c); experiment: Binding affinity to Saccharomyces cerevisiae Pho80-Pho85-Pho81-MD complex at 0.2 uM after 30 mins by electrophoretic mobility shift assay in presence of 6mM CaCl2; assay type: protein-complex assay; conditions: tested as the 32P-labelled form
[18] = target: T1, Pho80/Pho85/Pho81 complex (Saccharomyces cerevisiae S288c); experiment: Displacement of [32P]-labeled 6-inositol heptakisphosphate from Pho80-Pho85-Pho81-MD complex in Saccharomyces cerevisiae at 400 uM at 4 degC by electrophoretic mobility shift assay; assay type: protein-complex assay; conditions: tested as the 32P-labelled form
[19] = target: T3, Pho80/Pho85/Pho81 complex; experiment: Inhibition of Saccharomyces cerevisiae Pho80-Pho85-Pho81-MD catalyzed phosphorylation of Pho4-site 6 peptide; assay type: protein-complex assay
[20] = target: T2, Pho80/Pho85 (Saccharomyces cerevisiae S288c); experiment: Binding affinity of […]-labeled Pho81-MD to Saccharomyces cerevisiae Pho80-Pho85 by fluorescence binding assay relative to untreated control; assay type: protein-complex assay
[21] = target: T1, Pho80/Pho85/Pho81 complex (Saccharomyces cerevisiae S288c); experiment: Displacement of [32P]-labeled 4-inositol heptakisphosphate from Pho80-Pho85-Pho81-MD complex in Saccharomyces cerevisiae at 400 uM 30 mins at 30 degC by electrophoretic mobility shift assay; assay type: protein-complex assay; conditions: tested as the 32P-labelled form
[22] = target: T1, Pho80/Pho85/Pho81 complex (Saccharomyces cerevisiae S288c); experiment: Displacement of [32P]-labeled 4-inositol heptakisphosphate from Pho80-Pho85-Pho81-MD complex in Saccharomyces cerevisiae at 400 uM 30 mins at 4 degC by electrophoretic mobility shift assay; assay type: protein-complex assay; conditions: tested as the 32P-labelled form
[23] = target: T1, Pho80/Pho85/Pho81 complex (Saccharomyces cerevisiae S288c); experiment: Inhibition of Saccharomyces cerevisiae Pho80-Pho85-Pho81-MD catalyzed phosphorylation of Pho4 I22T distal-site mutant assessed as increase in substrate concentration; assay type: protein-complex assay
[24] = target: T1, Pho80/Pho85/Pho81 complex (Saccharomyces cerevisiae S288c); experiment: Binding affinity to Saccharomyces cerevisiae Pho80-Pho85-Pho81-MD complex at 0.2 uM after 30 mins by electrophoretic mobility shift assay in presence of 6 mM ZnSO4; assay type: protein-complex assay; conditions: tested as the 32P-labelled form
[25] = target: T1, Pho80/Pho85/Pho81 complex (Saccharomyces cerevisiae S288c); experiment: Binding affinity to Saccharomyces cerevisiae Pho80-Pho85-Pho81-MD complex at 400 uM after 30 mins at 30 degC by electrophoretic mobility shift assay; assay type: protein-complex assay
[26] = target: T2, Pho80/Pho85 (Saccharomyces cerevisiae S288c); experiment: Binding affinity of Pho81-MD S2-segment to Saccharomyces cerevisiae Pho80-Pho85; assay type: protein-complex assay
[27] = target: T1, Pho80/Pho85/Pho81 complex (Saccharomyces cerevisiae S288c); experiment: Displacement of [32P]-labeled 6-inositol heptakisphosphate from Pho80-Pho85-Pho81-MD complex in Saccharomyces cerevisiae at 400 uM at 30 degC by electrophoretic mobility shift assay; assay type: protein-complex assay; conditions: tested as the 32P-labelled form
[28] = target: T4, Phosphate system positive regulatory protein PHO81; experiment: Inhibition of Saccharomyces cerevisiae Pho81-MD-dependent Pho80-Pho85 activity after 30 mins
[29] = target: T1, Pho80/Pho85/Pho81 complex (Saccharomyces cerevisiae S288c); experiment: Inhibition of Saccharomyces cerevisiae Pho80-Pho85-Pho81-MD catalyzed phosphorylation of Pho4 D175V distal-site mutant; assay type: protein-complex assay
[30] = target: T1, Pho80/Pho85/Pho81 complex (Saccharomyces cerevisiae S288c); experiment: Binding affinity to Saccharomyces cerevisiae Pho80-Pho85-Pho81-MD complex at 0.2 uM after 30 mins by electrophoretic mobility shift assay in presence of 6mM MnCl2; assay type: protein-complex assay; conditions: tested as the 32P-labelled form
[31] = target: T1, Pho80/Pho85/Pho81 complex (Saccharomyces cerevisiae S288c); experiment: Inhibition of Saccharomyces cerevisiae Pho80-Pho85-Pho81-MD catalyzed phosphorylation of Pho4 P174L distal-site mutant assessed as increase in substrate concentration; assay type: protein-complex assay

T3 sequence (P17157 whole entry, one chain of several): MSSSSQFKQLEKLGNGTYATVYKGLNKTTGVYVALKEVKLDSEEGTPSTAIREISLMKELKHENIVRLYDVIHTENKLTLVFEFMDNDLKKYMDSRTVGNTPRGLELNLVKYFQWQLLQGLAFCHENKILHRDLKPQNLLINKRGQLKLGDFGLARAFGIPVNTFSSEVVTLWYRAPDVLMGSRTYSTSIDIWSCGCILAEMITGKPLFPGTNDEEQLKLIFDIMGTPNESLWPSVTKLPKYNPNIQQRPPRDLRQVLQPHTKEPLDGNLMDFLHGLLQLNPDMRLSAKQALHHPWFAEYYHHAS
T3 sequence (P20052 whole entry, one chain of several): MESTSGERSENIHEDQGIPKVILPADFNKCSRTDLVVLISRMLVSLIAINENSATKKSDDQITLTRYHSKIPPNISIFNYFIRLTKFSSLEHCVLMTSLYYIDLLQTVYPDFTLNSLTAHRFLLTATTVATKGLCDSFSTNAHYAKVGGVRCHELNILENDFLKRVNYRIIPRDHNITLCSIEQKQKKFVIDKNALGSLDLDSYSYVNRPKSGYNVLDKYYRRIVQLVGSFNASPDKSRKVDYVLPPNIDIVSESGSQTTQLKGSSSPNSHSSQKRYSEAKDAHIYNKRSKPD

O=P(O)(O)O[C@H]1[C@@H](OP(=O)(O)O)[C@@H](OP(=O)(O)O)[C@H](OP(=O)(O)OP(=O)(O)O)[C@@H](OP(=O)(O)O)[C@@H]1OP(=O)(O)O
Activity [1]: Active
inhibition [2]: Active
inhibition [3]: Active
Activity [4]: inactive
Ki [5]: 19 µM
IC50 [6]: 31 µM
Activity [7]: Active
IC50 [8]: 22 µM
Activity [9]: Active
Activity [10]: inactive
inhibition [11]: Active
IC50 [12]: 23 µM
Activity [13]: Active
Activity [14]: inactive
Kd [15]: 20.3 µM
Activity [16]: inactive
Activity [17]: inactive
Activity [18]: inactive
IC50 [19]: 25 µM
fold change (FC) [20]: 5
Activity [21]: Active
Activity [22]: inactive
inhibition [23]: Active
Activity [24]: Active
Activity [25]: inactive
Activity [26]: inactive
Activity [27]: Active
IC50 [28]: 14 µM
inhibition [29]: Active
Activity [30]: Active
inhibition [31]: Active

O=P(O)(O)O[C@H]1[C@@H](OP(=O)(O)O)[C@H](OP(=O)(O)O)[C@@H](OP(=O)(O)OP(=O)(O)O)[C@H](OP(=O)(O)O)[C@H]1OP(=O)(O)O
Activity [20]: inactive
